Source: US12077503B2, “Substituted cyclic amides and their use as herbicides” (FMC CORPORATION, priority 2015, dated 2024)

Columns and labels:
Type in all cases: in vivo
[1] = system: ragweed (common ragweed, Ambrosia elatior); experiment: Test A postemergence; conditions: Ambrosia artemisiifolia, post-emergence, 240 h, Postemergence; for pest or weed control at 125 g/ha: 125 g ai/ha, visual rating about 10 d after treatment, read-out: Ragweed plant response rating (0 to 100 scale); for pest or weed control at 500 g/ha: 500 g ai/ha, visual injury, 0 to 100 scale (0 no effect, 100 complete control), approx. 10 d, read-out: Plant response rating, Ragweed
How it was run: (§1)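 Each rating is a visual injury score from 0 to 100 given about 10 d after treatment, judged against untreated controls kept alongside in the greenhouse. In loam soil–sand blend, seeds got a preemergence directed soil spray, while postemergence plants were 2 to 10 cm tall at spraying.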

[2] = system: ryegrass, Italian (Italian ryegrass, Lolium multiflorum); experiment: Test A postemergence; conditions: Lolium multiflorum, post-emergence, 240 h, Postemergence; for pest or weed control at 125 g/ha: 125 g ai/ha, visual rating about 10 d after treatment, read-out: Ryegrass, Italian plant response rating (0 to 100 scale); for pest or weed control at 500 g/ha: 500 g ai/ha, visual injury, 0 to 100 scale (0 no effect, 100 complete control), approx. 10 d, read-out: Plant response rating, Ryegrass, Italian
How it was run: as §1

[3] = system: Galium (catchweed bedstraw, Galium aparine); experiment: Test A postemergence; conditions: Galium, post-emergence, 240 h, Postemergence; for pest or weed control at 125 g/ha: 125 g ai/ha, visual rating about 10 d after treatment, read-out: Galium plant response rating (0 to 100 scale); for pest or weed control at 500 g/ha: 500 g ai/ha, visual injury, 0 to 100 scale (0 no effect, 100 complete control), approx. 10 d, read-out: Plant response rating, Galium
How it was run: as §1

[4] = system: barnyardgrass (Echinochloa crus-galli); experiment: Test A postemergence; conditions: Echinochloa crus-galli, post-emergence, 240 h, Postemergence
How it was run: as §1

corn (Zea mays) = experiment: Test A postemergence; conditions: Zea mays, post-emergence, 240 h, Postemergence; for plant injury at 125 g/ha: 125 g ai/ha, visual rating about 10 d after treatment, read-out: Corn plant response rating (0 to 100 scale); for Corn plant response rating (crop injury, 0 = no effect, 100 = complete kill) at 500 g/ha: 500 g ai/ha, visual injury, 0 to 100 scale (0 no effect, 100 complete control), approx. 10 d
How it was run: as §1

[5] = system: pigweed (Amaranthus retroflexus); experiment: Test A postemergence; conditions: Amaranthus retroflexus, post-emergence, 240 h, Postemergence; for pest or weed control at 125 g/ha: 125 g ai/ha, visual rating about 10 d after treatment, read-out: Pigweed plant response rating (0 to 100 scale); for pest or weed control at 500 g/ha: 500 g ai/ha, visual injury, 0 to 100 scale (0 no effect, 100 complete control), approx. 10 d, read-out: Plant response rating, Pigweed
How it was run: as §1

[6] = system: giant foxtail (Setaria faberii); experiment: Test A postemergence; conditions: Setaria faberi, post-emergence, 240 h, Postemergence; for pest or weed control at 125 g/ha: 125 g ai/ha, visual rating about 10 d after treatment, read-out: Foxtail, Giant plant response rating (0 to 100 scale); for pest or weed control at 500 g/ha: 500 g ai/ha, visual injury, 0 to 100 scale (0 no effect, 100 complete control), approx. 10 d, read-out: Plant response rating, Foxtail, Giant
How it was run: as §1

Kochia (Kochia scoparia) [7] = experiment: Test A postemergence; conditions: Bassia scoparia, post-emergence, 240 h, Postemergence; for pest or weed control at 125 g/ha: 125 g ai/ha, visual rating about 10 d after treatment, read-out: Kochia plant response rating (0 to 100 scale); for pest or weed control at 500 g/ha: 500 g ai/ha, visual injury, 0 to 100 scale (0 no effect, 100 complete control), approx. 10 d, read-out: Plant response rating, Kochia
How it was run: as §1

[8] = system: wheat (Triticum aestivum); experiment: Test A postemergence; conditions: Triticum aestivum, post-emergence, 240 h, Postemergence; for plant injury at 125 g/ha: 125 g ai/ha, visual rating about 10 d after treatment, read-out: Wheat plant response rating (0 to 100 scale); for plant injury at 500 g/ha: 500 g ai/ha, visual injury, 0 to 100 scale (0 no effect, 100 complete control), approx. 10 d, read-out: Plant response rating, Wheat
How it was run: as §1

[9] = system: blackgrass (Alopecurus myosuroides); experiment: Test A postemergence; conditions: Alopecurus myosuroides, post-emergence, 240 h, Postemergence; for pest or weed control at 125 g/ha: 125 g ai/ha, visual rating about 10 d after treatment, read-out: Blackgrass plant response rating (0 to 100 scale); for pest or weed control at 500 g/ha: 500 g ai/ha, visual injury, 0 to 100 scale (0 no effect, 100 complete control), approx. 10 d, read-out: Plant response rating, Blackgrass
How it was run: as §1

[10] = system: ragweed (common ragweed, Ambrosia elatior); experiment: Test A preemergence; conditions: Ambrosia artemisiifolia, pre-emergence, 240 h; for pest or weed control at 500 g/ha: 500 g ai/ha, preemergence; for pest or weed control at 125 g/ha: Preemergence, 125 g ai/ha
How it was run: as §1

[11] = system: ryegrass, Italian (Italian ryegrass, Lolium multiflorum); experiment: Test A preemergence; conditions: Lolium multiflorum, pre-emergence, 240 h, 0 to 100 scale (0 no effect, 100 complete control), read-out: Plant response rating, Ryegrass, Italian; for pest or weed control at 125 g/ha: Preemergence, 125 g ai/ha
How it was run: as §1

[12] = system: barnyardgrass (Echinochloa crus-galli); experiment: Test A preemergence; conditions: Echinochloa crus-galli, pre-emergence, 240 h; for pest or weed control at 500 g/ha: 500 g ai/ha, preemergence; for pest or weed control at 125 g/ha: Preemergence, 125 g ai/ha
How it was run: as §1

[13] = system: pigweed (Amaranthus retroflexus); experiment: Test A preemergence; conditions: Amaranthus retroflexus, pre-emergence, 240 h; for pest or weed control at 500 g/ha: 500 g ai/ha, preemergence; for pest or weed control at 125 g/ha: Preemergence, 125 g ai/ha
[14] = system: giant foxtail (Setaria faberii); experiment: Test A preemergence; conditions: Setaria faberi, pre-emergence, 240 h; for pest or weed control at 500 g/ha: 500 g ai/ha, preemergence; for pest or weed control at 125 g/ha: Preemergence, 125 g ai/ha
How it was run: as §1

Kochia (Kochia scoparia) [15] = experiment: Test A preemergence; conditions: Bassia scoparia, pre-emergence, 240 h; for pest or weed control at 500 g/ha: 500 g ai/ha, preemergence; for pest or weed control at 125 g/ha: Preemergence, 125 g ai/ha
How it was run: as §1

[16] = 0 to 100 scale (0 no effect, 100 complete control), read-out: Plant response rating, Ragweed
[17] = 0 to 100 scale (0 no effect, 100 complete control), read-out: Plant response rating, Barnyardgrass
[18] = 0 to 100 scale (0 no effect, 100 complete control), read-out: Plant response rating, Pigweed
[19] = 0 to 100 scale (0 no effect, 100 complete control), read-out: Plant response rating, Foxtail, Giant
[20] = 0 to 100 scale (0 no effect, 100 complete control), read-out: Plant response rating, Kochia

Row | SMILES | pest or weed control at 125 g/ha [1] | pest or weed control at 500 g/ha [1] | pest or weed control at 125 g/ha [2] | pest or weed control at 500 g/ha [2] | pest or weed control at 125 g/ha [3] | pest or weed control at 500 g/ha [3] | plant injury at 125 g/ha (corn (Zea mays)) | Corn plant response rating (crop injury, 0 = no effect, 100 = complete kill) at 500 g/ha (corn (Zea mays)) | pest or weed control at 125 g/ha [5] | pest or weed control at 500 g/ha [5] | pest or weed control at 125 g/ha [6] | pest or weed control at 500 g/ha [6] | pest or weed control at 125 g/ha (Kochia (Kochia scoparia) [7]) | pest or weed control at 500 g/ha (Kochia (Kochia scoparia) [7]) | plant injury at 125 g/ha [8] | plant injury at 500 g/ha [8] | pest or weed control at 125 g/ha [9] | pest or weed control at 500 g/ha [9] | pest or weed control at 125 g/ha [10, 16] | pest or weed control at 125 g/ha [11] | other results
1 | CN1C[C@H](c2ccc3c(c2)CCO3)[C@@H](C(=O)Nc2ccccc2F)C1=O [Compound 1321] | 0% | 20% | 20% | 50% | 30% | 50% | 40% | 70% | 0% | 0% | 90% | 90% | 0% | 50% | 20% | 50% | 30% | 50% | 50% | 0% | pest or weed control at 125 g/ha ([4]; 125 g ai/ha, visual rating about 10 d after treatment, read-out: Barnyardgrass plant response rating (0 to 100 scale, 0 no effect, 100 complete control)): 90%; pest or weed control at 500 g/ha ([4]; 500 g ai/ha, visual injury, 0 to 100 scale (0 no effect, 100 complete control), approx. 10 d, read-out: Plant response rating, Barnyardgrass): 90%; pest or weed control at 500 g/ha ([10]; 0 to 100 scale where 0 is no effect and 100 is complete control, read-out: Ragweed plant response rating): 50%; pest or weed control at 500 g/ha ([12]; 0 to 100 scale where 0 is no effect and 100 is complete control, read-out: Barnyardgrass plant response rating): 100%; pest or weed control at 125 g/ha [12, 17]: 90%; pest or weed control at 500 g/ha ([13]; 0 to 100 scale where 0 is no effect and 100 is complete control, read-out: Pigweed plant response rating): 0%; pest or weed control at 125 g/ha [13, 18]: 0%; pest or weed control at 500 g/ha ([14]; 0 to 100 scale where 0 is no effect and 100 is complete control, read-out: Foxtail, Giant plant response rating): 100%; pest or weed control at 125 g/ha [14, 19]: 90%; pest or weed control at 500 g/ha (Kochia (Kochia scoparia) [15]; 0 to 100 scale where 0 is no effect and 100 is complete control, read-out: Kochia plant response rating): 80%; pest or weed control at 125 g/ha (Kochia (Kochia scoparia) [15]; [20]): 50%
2 | CN1C[C@H](c2ccc(C(F)(F)F)nc2)[C@@H](C(=O)Nc2ccc(F)c(F)c2F)C1=O [Compound 1373] | 60% | 70% | 30% | 50% | 60% | 60% | 90% | 90% | 70% | 90% | 90% | 90% | 80% | 80% | 50% | 60% | 50% | 60% | 100% | 60% | pest or weed control at 500 g/ha [10, 16]: 100%; pest or weed control at 500 g/ha ([11]; 500 g ai/ha, preemergence): 90%; pest or weed control at 500 g/ha [12, 17]: 100%; pest or weed control at 125 g/ha [12, 17]: 90%; pest or weed control at 500 g/ha [13, 18]: 100%; pest or weed control at 125 g/ha [13, 18]: 90%; pest or weed control at 500 g/ha [14, 19]: 100%; pest or weed control at 125 g/ha [14, 19]: 100%; pest or weed control at 500 g/ha (Kochia (Kochia scoparia) [15]; [20]): 100%; pest or weed control at 125 g/ha (Kochia (Kochia scoparia) [15]; [20]): 100%
